From ChEMBL document CHEMBL5236572, “Bioactive Aurones, Indanones, and Other Hemiindigoid Scaffolds: Medicinal Chemistry and Photopharmacology Perspectives” (J Med Chem, 2022)
≈ marks a conversion by molar mass, not a printed value. Blank lines part the entries; values can stand above or below the compound they belong to.

Legend:
[1] = Antioxidant activity assessed as ABTS radical scavenging activity at 100 uM incubated for 12 to 16 hrs in dark; format: functional; conditions: time 12-16 hrs
[2] = Antioxidant activity assessed as DPPH radical scavenging activity at 100 uM measured for 20 mins by spectrophotometric analysis; format: functional
[3] = Antioxidant activity assessed as DPPH radical scavenging activity at 100 uM measured for 60 mins by spectrophotometric analysis; format: functional
[4] = Inhibition of AAPH induced lipid peroxidation; conditions: dose or concentration not given here
[5] = Antiproliferative activity against doxorubicin resistant human MDA-MB-231-Dox cells assessed as inhibition of cell proliferation incubated for 72 hrs by MTT assay; format: functional, cell-based
[6] = Antiproliferative activity against multidrug resistant human MV522/MDR1 cells assessed as inhibition of cell proliferation incubated for 72 hrs by MTT assay; format: functional, cell-based; conditions: MV522/MDR1, 72 h
[7] = Antiproliferative activity against multidrug resistant human CEM/VLB100 cells assessed as inhibition of cell proliferation incubated for 72 hrs by MTT assay; format: functional, cell-based; conditions: CEM/VLB100, 72 h
[8] = tested on: KB 3-1; assay: Antiproliferative activity against multidrug resistant human KB-3-1 cells assessed as inhibition of cell proliferation incubated for 72 hrs by MTT assay; format: functional, cell-based; conditions: KB 3-1, 72 h
[9] = molecular target: Tubulin (Bos taurus, UniProt Q6B856+Q862L2+Q862F3); assay: Inhibition of bovine brain tubulin polymerization preincubated for 30 mins followed by GTP addition and measured after 20 mins by spectrophotometric analysis
[10] = tested on: NCI/ADR-RES; assay: Antiproliferative activity against multi drug resistant human NCI-ADR-RES cells assessed as inhibition of cell proliferation incubated for 72 hrs by MTT assay; format: functional, cell-based
[11] = tested on: HL60/ADR; assay: Antiproliferative activity against drug resistant human HL60/ADR cells assessed as inhibition of cell proliferation incubated for 72 hrs by MTT assay; format: functional, cell-based
[12] = tested on: MES-SA/Dx5; assay: Antiproliferative activity against multi drug resistant human MES-SA/Dx5 cells assessed as inhibition of cell proliferation incubated for 72 hrs by MTT assay; format: functional, cell-based; conditions: MES-SA/Dx5, 72 h
[13] = Inhibition of Polyporus arcularius tyrosinase using L-DOPA as substrate incubated for 10 mins by spectrophotometric analysis
[14] = molecular target: T1, Tyrosinase (Agaricus bisporus, UniProt O42713); assay: Inhibition of Agaricus bisporus tyrosinase using L-DOPA as substrate incubated for 10 mins by spectrophotometric analysis
T1 sequence (O42713 whole entry): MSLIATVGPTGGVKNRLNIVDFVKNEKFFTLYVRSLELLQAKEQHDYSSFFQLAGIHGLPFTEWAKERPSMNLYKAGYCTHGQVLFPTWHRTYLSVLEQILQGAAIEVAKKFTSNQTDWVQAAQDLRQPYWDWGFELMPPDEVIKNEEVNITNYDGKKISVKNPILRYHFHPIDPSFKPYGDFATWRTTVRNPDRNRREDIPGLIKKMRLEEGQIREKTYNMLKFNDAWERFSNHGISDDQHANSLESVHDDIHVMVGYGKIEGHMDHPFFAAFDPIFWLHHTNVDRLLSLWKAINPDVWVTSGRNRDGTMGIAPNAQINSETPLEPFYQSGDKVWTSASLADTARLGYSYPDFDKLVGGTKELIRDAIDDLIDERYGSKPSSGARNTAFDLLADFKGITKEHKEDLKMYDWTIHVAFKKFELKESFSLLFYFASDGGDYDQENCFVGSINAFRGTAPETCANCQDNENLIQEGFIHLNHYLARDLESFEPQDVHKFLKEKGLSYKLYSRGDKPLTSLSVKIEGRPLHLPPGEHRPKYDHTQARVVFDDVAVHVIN

[15] = tested on: PC-3; assay: Antiproliferative activity against human PC-3 cells assessed as reduction in cell viability incubated for 48 hrs by MTT assay; format: functional, cell-based; conditions: PC-3, 48 h
[16] = tested on: HeLa; assay: Antiproliferative activity against human HeLa cells assessed as reduction in cell viability incubated for 48 hrs by MTT assay; format: functional, cell-based
[17] = molecular target: Tubulin (Sus scrofa, UniProt P02554+P02550); assay: Inhibition of porcine brain tubulin polymerization preincubated for 1 mins followed by GTP addition and measured for 60 mins at 1 min interval by fluorescence assay
[18] = tested on: A549; assay: Antiproliferative activity against human A549 cells assessed as reduction in cell viability incubated for 48 hrs by MTT assay; format: functional, cell-based; conditions: A549, 48 h
[19] = tested on: Bel-7402; assay: Antiproliferative activity against human Bel-7402 cells assessed as reduction in cell viability incubated for 48 hrs by MTT assay; format: functional, cell-based; conditions: Bel-7402, 48 h
[20] = tested on: MDA-MB-231; assay: Antiproliferative activity against human MDA-MB-231 cells assessed as reduction in cell viability incubated for 48 hrs by MTT assay; format: functional, cell-based; conditions: MDA-MB-231, 48 h
[21] = molecular target: Serine/threonine-protein kinase pim-1 (Homo sapiens, UniProt P11309); assay: Inhibition of PIM1 (unknown origin) using poly-Glu-Tyr (4:1) as substrate in presence of [gamma-33P-ATP] incubated for 2 hrs by radiometric kinase assay
Serine/threonine-protein kinase pim-1, sequence (P11309 whole entry): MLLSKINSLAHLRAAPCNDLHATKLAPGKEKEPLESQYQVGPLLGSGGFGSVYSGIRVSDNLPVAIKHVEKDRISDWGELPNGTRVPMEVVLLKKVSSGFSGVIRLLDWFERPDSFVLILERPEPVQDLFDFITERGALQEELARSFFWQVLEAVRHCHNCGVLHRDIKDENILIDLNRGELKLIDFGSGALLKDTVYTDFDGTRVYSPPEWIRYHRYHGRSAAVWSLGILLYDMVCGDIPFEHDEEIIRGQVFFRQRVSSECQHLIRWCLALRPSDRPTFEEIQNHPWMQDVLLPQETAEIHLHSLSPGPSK

[22] = molecular target: T1, Tyrosinase; assay: Inhibition of mushroom tyrosinase using L-tyrosine as substrate incubated for 30 mins by spectrophotometric analysis
[23] = tested on: MES-SA; assay: Antiproliferative activity against human MES-SA cells assessed as reduction in cell viability incubated for 72 hrs by PrestoBlue cell viability assay; format: functional, cell-based
[24] = Selectivity ratio of IC50 for antiproliferative activity against human MES-SA cells to IC50 for antiproliferative activity against doxorubicin resistant human MES-SA/Dx5 cells; format: functional
[25] = tested on: MES-SA/Dx5; assay: Antiproliferative activity against doxorubicin resistant human MES-SA/Dx5 cells assessed as reduction in cell viability incubated for 72 hrs by PrestoBlue cell viability assay; format: functional, cell-based; conditions: MES-SA/Dx5, 72 h
[26] = tested on: Candida parapsilosis; assay: Antifungal activity against Candida parapsilosis assessed as reduction in fungal growth; format: functional; conditions: Lodderomyces parapsilosis
[27] = Inhibition of Saccharomyces cerevisiae full-length ai5gamma intron self-splicing by fluorimetric assay
[28] = tested on: Ehrlich; assay: Antitumor activity against mouse Ehrlich ascites carcinoma allografted in Swiss albino mouse assessed as tumor growth inhibition at 20 mg/kg, ip for 12 days; format: functional; conditions: 288 h, time 12 day, read-out: TGI
[29] = molecular target: T1, Tyrosinase; assay: Inhibition of mushroom tyrosinase using L-DOPA as substrate incubated for 30 mins by spectrophotometric analysis
[30] = molecular target: T1, Tyrosinase; assay: Inhibition of mushroom tyrosinase using L-DOPA as substrate preincubated for 10 mins followed by substrate addition and measured after 1 mins by spectrophotometric analysis
[31] = tested on: K562; assay: Antiproliferative activity against human K562 cells assessed as reduction in cell viability incubated for 48 hrs by MTT assay; format: functional, cell-based; conditions: K562, 48 h
[32] = tested on: THP-1; assay: Antiproliferative activity against human THP-1 cells assessed as reduction in cell viability incubated for 48 hrs by sulforhodamine assay; format: functional, cell-based; conditions: THP-1, 48 h
[33] = tested on: A549; assay: Antiproliferative activity against human A549 cells assessed as reduction in cell viability incubated for 48 hrs by sulforhodamine assay; format: functional, cell-based; conditions: A549, 48 h
[34] = tested on: T47D; assay: Antiproliferative activity against human T47D cells assessed as reduction in cell viability incubated for 48 hrs by sulforhodamine assay; format: functional, cell-based
[35] = tested on: HCT-116; assay: Antiproliferative activity against human HCT-116 cells assessed as reduction in cell viability incubated for 48 hrs by sulforhodamine assay; format: functional, cell-based; conditions: HCT-116, 48 h
[36] = tested on: MCF7; assay: Antiproliferative activity against human MCF7 cells assessed as reduction in cell viability incubated for 48 hrs by sulforhodamine assay; format: functional, cell-based; conditions: MCF7, 48 h

SMILES: O=C1/C(=C/c2ccc(O)c(O)c2)Oc2cc(O)ccc21
Activity [1]: 71%
Activity [2]: 89%
Activity [3]: 89%
inhibition [4]: 53%

SMILES: COc1cc2c(c(N)c1OC)C(=O)/C(=C/c1cc(C)c(O)c(C)c1)C2
IC50 [5]: 2 nM
IC50 [6]: 2 nM
IC50 [7]: 2 nM
IC50 [8]: 2 nM
IC50 [9]: 1700 nM
IC50 [10]: 2 nM
IC50 [11]: 2 nM
IC50 [12]: 2 nM

SMILES: COc1ccc(/C=C2\Cc3c(cc(OC)c(OC)c3OC)C2=O)cc1O
IC50 [15]: 170 nM
IC50 [16]: 170 nM
IC50 [17]: 7560 nM
IC50 [18]: 170 nM
IC50 [19]: 170 nM
IC50 [20]: 170 nM

SMILES: COc1cc(O)c2c(c1)O/C(=C\c1c[nH]c3nc(Cl)ccc13)C2=O
IC50 [21]: 8800 nM

SMILES: COc1cc(OC)c2c(c1)O/C(=C\c1ccc(N(C)C)cc1)C2=O
IC50 [23]: 60000 nM
Ratio IC50 [24]: 4
IC50 [25]: 15000 nM

SMILES: COc1cc(C2/C(=C/c3ccc4c(c3)OCO4)C(=O)c3cc(OC)c(OC)c(OC)c32)cc(OC)c1OC (stereo not drawn)
inhibition in vivo at 20 mg/kg [28]: 45.5%

SMILES: COc1cc2c(c(OC)c1OC)C/C(=C\c1cccc3[nH]ccc13)C2=O
IC50 [31]: 30 nM
IC50 [15]: 30 nM
IC50 [16]: 30 nM
IC50 [17]: 1990 nM
IC50 [18]: 30 nM
IC50 [19]: 30 nM

SMILES: COc1cc(C2/C(=C/c3ccc([N+](=O)[O-])cc3)C(=O)c3cc(OC)c(OC)c(OC)c32)cc(OC)c1OC (stereo not drawn)
IC50 [32]: 4000 nM
IC50 [17]: 1500 nM
IC50 [33]: 4000 nM
IC50 [34]: 4000 nM
IC50 [35]: 4000 nM
IC50 [36]: 4000 nM

SMILES: CCCCc1ccc(/C=C2\Nc3cc(OC)cc(OC)c3C2=O)cc1
Ratio IC50 [24]: 4.8

Results, then the compound that gave them:

IC50 [13]: 34000 nM
IC50 [14]: 4000 nM
SMILES: O=C1/C(=C/c2ccc(O)cc2O)Oc2cccc(O)c21

IC50 [22]: 150 nM
SMILES: O=C1/C(=C/c2ccc(O)cc2O)Cc2ccc3ccccc3c21

MIC [26]: 53 µM (≈ 14.3 µg/mL)
Ki [27]: 2100 nM
SMILES: O=C1/C(=C/c2cc(O)c(O)c(O)c2)Oc2ccccc21

IC50 [29]: 34 nM
SMILES: O=C1/C(=C/c2ccc(O)cc2O)Cc2ccccc21

IC50 [30]: 8120 nM
SMILES: CN(C)c1ccc(/C=C2\Cc3ccccc3C2=O)c([N+](=O)[O-])c1
